The source of these data is patent publication US20140100217A1, “[…] OF PROLINE-RICH PEPTIDES AND THEIR USE” (priority 2012, published 2014).

What is called Kd is the constant that tells how readily two partners part at equilibrium. A lower Kd goes with a tighter complex.

No end group written: not given here.

Assay [1] concerns the target T1, VASP-EVH1 domain (Homo sapiens, UniProt P50552).
T1 construct: ligand peptides with the VASP-EVH1 domain in solution
Format: binding.

Assay [2] concerns the target T1, VASP-EVH1 domain. In words: Binding affinity of ligand peptides by kinetic Biacore method. As to the method: With the aid of the synthetic compound 85, ligand peptides with partially or completely replaced proline sequences were synthesized by way of example and investigated for their interaction with the EVH1 domain (pp=component 85). […] The binding affinities were determined by means of NMR titration, the kinetic Biacore method or by means of fluorescence titration.

T1 sequence (P50552 2-113): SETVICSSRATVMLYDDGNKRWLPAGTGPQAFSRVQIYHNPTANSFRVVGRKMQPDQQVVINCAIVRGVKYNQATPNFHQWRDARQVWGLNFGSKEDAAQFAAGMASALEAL

Regarding FPPPPT [FPPPPT], the “binding affinity (KD)” value at VASP-EVH1 domain [1] is reported as “measurable affinity for the VASP-EVH1 domain could no longer be determined”.

The molecule `CC(C)C[C@H](NC(=O)[C@H](CCC(=O)O)NC(=O)[C@H](CC(=O)O)NC(=O)[C@H](CCC(=O)O)NC(=O)[C@@H](NC(=O)[C@@H]1CCCN1C(=O)[C@@H]1CC[C@@H]2C=C[C@@H](C)[C@H](NC(=O)[C@@H]3CCCN3C(=O)[C@H](Cc3c[nH]c4ccccc34)NC(=O)[C@H](CCC(=O)O)NC(=O)[C@H](Cc3ccccc3)NC(=O)[C@@H](N)CO)C(=O)N21)[C@@H](C)O)C(=O)O` [SFEWPppPTEDEL (II)] had a dissociation constant (Kd) on VASP-EVH1 domain [2] of 3.7 to 12.5 µM.
